Results as given in US9551711B2, “Compositions and methods for detecting nitration of PKG-1α and methods of use thereof” (Augusta University Research Institute, Inc., priority 2013, dated 2017).

Molecular target: T1, PKG-1α (Homo sapiens, UniProt Q13976)
T1 sequence (Q13976 2-671): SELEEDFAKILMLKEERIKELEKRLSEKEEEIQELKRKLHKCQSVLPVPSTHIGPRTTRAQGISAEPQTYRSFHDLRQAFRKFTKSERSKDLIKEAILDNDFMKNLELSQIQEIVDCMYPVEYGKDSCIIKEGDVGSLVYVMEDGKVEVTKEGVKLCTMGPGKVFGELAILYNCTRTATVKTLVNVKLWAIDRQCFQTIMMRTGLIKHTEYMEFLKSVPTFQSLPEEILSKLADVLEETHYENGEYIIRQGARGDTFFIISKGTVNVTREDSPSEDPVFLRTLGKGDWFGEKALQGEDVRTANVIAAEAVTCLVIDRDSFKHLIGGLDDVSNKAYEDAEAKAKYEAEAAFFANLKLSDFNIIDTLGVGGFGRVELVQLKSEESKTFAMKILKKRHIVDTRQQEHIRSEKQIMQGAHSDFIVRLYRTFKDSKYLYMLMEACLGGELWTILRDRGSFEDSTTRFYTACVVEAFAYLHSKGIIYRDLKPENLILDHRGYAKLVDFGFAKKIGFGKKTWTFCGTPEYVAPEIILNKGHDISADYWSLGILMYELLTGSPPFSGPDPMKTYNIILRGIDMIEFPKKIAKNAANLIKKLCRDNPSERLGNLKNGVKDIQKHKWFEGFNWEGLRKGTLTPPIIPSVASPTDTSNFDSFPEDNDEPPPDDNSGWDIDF
Assay: PKG activity in transfected HEK-293T cells
Format: cell-based
Design: an expression plasmid containing a full length WT-PKG-1α cDNA; made in house; host or cells: HEK-293T
Conditions: HEK-293T expressing WT-PKG-1α; SIN-1 500 μM, 30 min
Procedure: To determine the role of tyrosine 247 and tyrosine 425 in mediating the nitration dependent inhibition of PKG-1α kinase activity, Y247F- and Y425F-PKG-1α mutants were generated and expressed in HEK-293T cells. HEK-293T cells were transiently transfected with expression plasmids containing WT-, Y247F-, or Y425F-PKG-1α for 48 h. […] Protein extracts were immunoprecipitated using an antibody raised against PKG-1α and the level of nitrated PKG-1α determined by probing the membranes with an antiserum raised against 3-NT. The blots were then stripped and re-probed for PKG-1α to normalize for the efficiency of the immunoprecipitation.
Total PKG activity was determined using a non-radioactive immunoassay in cell lysates, according to the manufacturer's directions. […]
After incubation for 30 min at 30° C. to allow the phosphorylation of the bound substrate, an HRP conjugated anti-phosphothreonine specific antibody was added to convert a chromogenic substrate to a colorimetric substrate that was subsequently read spectrophotometrically at 450 nm. The change in absorbance reflected the relative activity of PKG in the sample. […] The kinetic constants were determined using nonlinear regression (curve fit) analysis (GraphPad Prism Software Inc.).

3-morpholinosydnonimine N-ethylcarbamide [SIN-1]
cGMP dependent PKG activity: attenuated
